Experimental data as given in ChEMBL document CHEMBL1128156, “Potent dual antagonists of endothelin and angiotensin II receptors derived from -phenoxyphenylacetic acids (Part III)” (Bioorg Med Chem Lett, 1995).

Key:
Endothelin-1 receptor = target: T1, Endothelin-1 receptor (Homo sapiens, UniProt P25101); experiment: Inhibition of human endothelin A (ETA) receptor expressed in CHO cells; type: cell-based
T1 sequence (P25101 whole entry): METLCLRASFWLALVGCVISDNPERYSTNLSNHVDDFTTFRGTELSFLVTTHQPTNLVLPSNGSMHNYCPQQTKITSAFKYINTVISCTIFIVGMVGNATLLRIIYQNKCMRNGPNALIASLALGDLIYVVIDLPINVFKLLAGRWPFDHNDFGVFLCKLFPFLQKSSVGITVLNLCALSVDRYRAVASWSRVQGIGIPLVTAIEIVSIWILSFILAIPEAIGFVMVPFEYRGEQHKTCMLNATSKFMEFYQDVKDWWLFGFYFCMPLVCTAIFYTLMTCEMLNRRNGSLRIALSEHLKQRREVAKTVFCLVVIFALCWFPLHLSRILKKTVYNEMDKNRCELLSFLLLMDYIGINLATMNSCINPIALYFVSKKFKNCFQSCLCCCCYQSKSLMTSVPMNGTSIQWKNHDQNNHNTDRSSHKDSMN

[1] = target: T2, Endothelin receptor type B (Homo sapiens, UniProt P24530); experiment: Inhibition of human endothelin B (ETB) receptor expressed in CHO cells; type: cell-based
T2 sequence (P24530 whole entry): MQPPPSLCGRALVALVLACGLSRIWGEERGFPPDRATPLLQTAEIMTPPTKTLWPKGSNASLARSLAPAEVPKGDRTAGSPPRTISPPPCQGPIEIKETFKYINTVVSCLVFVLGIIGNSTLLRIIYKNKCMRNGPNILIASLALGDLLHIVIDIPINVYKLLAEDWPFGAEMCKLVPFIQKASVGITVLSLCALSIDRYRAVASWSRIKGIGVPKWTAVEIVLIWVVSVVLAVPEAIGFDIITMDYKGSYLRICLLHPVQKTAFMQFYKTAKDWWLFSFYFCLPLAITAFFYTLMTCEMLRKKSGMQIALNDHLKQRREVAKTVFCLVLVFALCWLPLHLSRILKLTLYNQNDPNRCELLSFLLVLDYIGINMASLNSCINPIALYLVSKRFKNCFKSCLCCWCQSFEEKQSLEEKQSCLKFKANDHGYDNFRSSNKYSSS

Structure (SMILES) | IC50 (Endothelin-1 receptor) [nM] | IC50 [1] [nM]
CCCc1cc(Cn2c(CC)nc3c(C)cc(C)nc32)ccc1OC(C(=O)O)c1ccccc1 (centres undefined) | 11000 | 47000
CCCc1cc(Cn2c(CC)nc3c(C)cc(C)nc32)ccc1OC(C(=O)O)c1ccc2c(c1)OCO2 (centres undefined) | 840 | 1600
CCCc1cc(Cn2c(CC)nc3c(C)cc(C)nc32)cc(CCC)c1OC(C(=O)NS(=O)(=O)c1ccccc1)c1ccc2c(c1)OCO2 (centres undefined) | 1600 | 800
CCCc1cc(Cn2c(CC)nc3c(C)cc(C)nc32)cc(CCC)c1OC(C(=O)NS(C)(=O)=O)c1ccc2c(c1)OCO2 (centres undefined) | 500 | 1200
CCCc1cc(Cn2c(CC)nc3c(C)cc(C)nc32)cc(CCC)c1OC(C(=O)NS(=O)(=O)C(C)C)c1ccc2c(c1)OCO2 (centres undefined) | 700 | 1900
CCCc1cc(Cn2c(CC)nc3c(C)cc(C)nc32)cc(CCC)c1OC(C(=O)NS(=O)(=O)c1cccs1)c1ccc2c(c1)OCO2 (centres undefined) | 820 | 540
CCCc1cc(Cn2c(CC)nc3c(C)cc(C)nc32)ccc1OC(C(=O)NS(=O)(=O)c1ccc(CC(C)C)s1)c1ccc2c(c1)OCO2 (centres undefined) | 75 | 90
CCCc1cc(Cn2c(CC)nc3c(C)cc(C)nc32)ccc1OC(C(=O)NS(=O)(=O)c1ccc(C(C)C)cc1)c1ccc2c(c1)OCO2 (centres undefined) | 24 | 60
CCCc1cc(Cn2c(CC)nc3c(C)cc(C)nc32)cc(CCC)c1OC(C(=O)NS(=O)(=O)c1ccc(C(C)C)cc1)c1ccc2c(c1)OCO2 (centres undefined) | 330 | 1300
CCCc1cc(Cn2c(CC)nc3c(C)cc(C)nc32)cc(CCC)c1OC(C(=O)O)c1ccc2c(c1)OCO2 (centres undefined) | 38 | 230
CCCc1cc(Cn2c(CC)nc3c(C)cc(C)nc32)cc(CCC)c1OC(C(=O)NS(=O)(=O)c1ccc(CC(C)C)s1)c1ccc2c(c1)OCO2 (centres undefined) | 600 | 420
CCCc1cc(Cn2c(CC)nc3c(C)cc(C)nc32)cc(CCC)c1OC(C(=O)O)c1cc(Br)c(OC)c(OC)c1Br (centres undefined) | 11000 | 31000
